These results are taken from PMC8316236, “Mechanistic physiology-based pharmacokinetic modeling to elucidate vincristine-induced peripheral neuropathy following treatment with novel kinase inhibitors” (Cancer Chemotherapy and Pharmacology, 2021).

For experiment [1], the target named is T1, P-glycoprotein (P-gp, ABCB1) (Homo sapiens, UniProt P08183).
T1 construct: inside-out membrane vesicles prepared from HEK293 cells overexpressing human P-gp
Briefly: inside-out vesicular transport inhibition assay with tritiated probe substrate; also Caco-2 bidirectional transport ([…]). It is filed as biochemical. (Passage across Caco-2 layers is used to estimate intestinal permeability.)

For experiment [2], the target named is T1, P-glycoprotein (P-gp, ABCB1). In words: inside-out vesicular transport inhibition assay with tritiated probe substrate. It is filed as biochemical.

T1 sequence (P08183 whole entry): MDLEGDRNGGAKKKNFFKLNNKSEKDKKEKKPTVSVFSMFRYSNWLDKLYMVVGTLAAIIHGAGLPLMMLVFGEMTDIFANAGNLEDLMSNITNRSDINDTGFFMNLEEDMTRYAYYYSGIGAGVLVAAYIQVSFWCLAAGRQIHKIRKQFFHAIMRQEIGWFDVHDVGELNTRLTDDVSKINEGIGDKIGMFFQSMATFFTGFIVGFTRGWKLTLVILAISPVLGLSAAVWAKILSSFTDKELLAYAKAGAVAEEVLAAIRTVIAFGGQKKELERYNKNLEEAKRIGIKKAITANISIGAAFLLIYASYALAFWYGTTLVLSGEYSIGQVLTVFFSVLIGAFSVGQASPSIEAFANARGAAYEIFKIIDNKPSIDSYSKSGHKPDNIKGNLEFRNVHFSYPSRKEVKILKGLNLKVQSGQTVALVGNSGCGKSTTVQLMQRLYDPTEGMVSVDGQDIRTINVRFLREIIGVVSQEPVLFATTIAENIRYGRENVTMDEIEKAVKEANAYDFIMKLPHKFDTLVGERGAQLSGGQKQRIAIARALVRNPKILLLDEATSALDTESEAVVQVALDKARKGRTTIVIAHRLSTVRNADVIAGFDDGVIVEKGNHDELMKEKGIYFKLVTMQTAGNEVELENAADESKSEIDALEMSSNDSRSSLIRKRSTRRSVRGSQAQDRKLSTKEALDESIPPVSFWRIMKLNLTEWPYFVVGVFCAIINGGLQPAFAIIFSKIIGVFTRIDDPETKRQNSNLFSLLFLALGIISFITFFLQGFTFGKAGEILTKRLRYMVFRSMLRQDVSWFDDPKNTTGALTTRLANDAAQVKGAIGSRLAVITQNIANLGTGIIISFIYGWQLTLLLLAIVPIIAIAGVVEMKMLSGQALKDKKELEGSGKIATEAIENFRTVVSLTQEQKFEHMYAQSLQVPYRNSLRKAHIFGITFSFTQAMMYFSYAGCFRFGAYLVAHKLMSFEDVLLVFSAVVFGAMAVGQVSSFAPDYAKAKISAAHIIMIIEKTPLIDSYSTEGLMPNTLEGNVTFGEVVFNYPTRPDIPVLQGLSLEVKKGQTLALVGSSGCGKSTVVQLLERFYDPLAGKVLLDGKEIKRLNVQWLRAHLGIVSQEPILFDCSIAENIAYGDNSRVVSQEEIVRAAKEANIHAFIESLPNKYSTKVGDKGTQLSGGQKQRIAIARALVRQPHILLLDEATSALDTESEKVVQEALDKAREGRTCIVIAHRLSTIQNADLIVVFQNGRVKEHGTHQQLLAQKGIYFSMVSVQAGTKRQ

Broadly, the IC50 is the concentration at which inhibition is half-maximal. Read a high IC50 as weaker potency. The molecule `CC#CC(=O)N1CCC[C@H]1c1nc(-c2ccc(C(=O)Nc3ccccn3)cc2)c2c(N)nccn12` [acalabrutinib] came in with an IC50 in experiment [1] of 57 µM. That is a double-digit micromolar value.

With `C=CC(=O)N1CCC[C@@H](n2nc(-c3ccc(Oc4ccccc4)cc3)c3c(N)ncnc32)C1` [ibrutinib], the IC50 in experiment [2] is 6 µM.
